Experiment [1] addresses cytochrome B of yeast S. cerevisiae (wild type) (Saccharomyces cerevisiae, UniProt P00163). Briefly: biochemical.
A further experiment addresses T1, human Complex III (Homo sapiens, UniProt P00156).
T1 construct: Mitochondrial membranes were prepared from yeast (Meisinger et al., Methods Mol. Biol. 2006, 313:33-9.) or HEK293 cells; endogenous in cells; host or cells: HEK293 cells (mitochondrial membranes)
In words: In vitro inhibition of Complex III, human enzyme. It is filed as biochemical. As to conditions: FIG. 14A curve 2. How it is done:
(§1) Compounds described herein were added to plates in a buffer containing 50 mM Tris-Cl pH 7.3, 10 mM NaN3, 0.01% BSA, and 0.05% Tween-20. Mitochondrial membranes (2-5 μg protein) were added to the buffer, followed by oxidized equine cytochrome C (Sigma) at a final concentration of 50 μM. Reactions were initiated by adding decylubiquinol to a final concentration of 50 μM. Reaction progress was monitored by reading the increase in signal at 550 nm on a Tecan Evo plate reader. […] All measurements were performed in triplicate.

A further experiment concerns Aspergillus terreus. Briefly: Aspergillus terreus susceptibility test (CLSI M38-A2). The format is cell-based. How it is done:
Aspergillus terreus (A. terreus) susceptibility testing was performed as described in Clinical Laboratory Standards Institute document […]-A2 (CLSI […]-A2) (CLSI. Reference Method for Broth Dilution Antifungal Susceptibility Testing of Filamentous Fungi; Approved Standard-Second Edition. CLSI, 940 West Valley Road, Suite 1400, Wayne, Pa. 19087-1898 USA, 2003).

Experiment [2] has as its system Saccharomyces cerevisiae strain W303-1a. In words: In vivo inhibition of fungal respiration (growth on glycerol). It is filed as cell-based. The settings on record: glycerol medium, 48 hours. The protocol: Saccharomyces cerevisiae (S. cerevisiae) strain W303-1a was grown overnight in Yeast-Peptone-Dextrose media, washed, and diluted into Yeast Nitrogen Base media with 2.5% glycerol containing compounds at a range of dilutions.

For experiment [3], the target named is cytochrome B of S. cerevisiae resistant to known antifungal agents (Saccharomyces cerevisiae, UniProt P00163, L275F). As to conditions: FIG. 14A curve 3. How it is done:
as §1

Experiment [4] deals with C. albicans. In words: Candida albicans susceptibility test (CLSI M27-A3). The format is cell-based. As to conditions: FIG. 9. The protocol: Candida albicans susceptibility testing was performed as described in Clinical Laboratory Standards Institute document M27-A3 (CLSI M27-A3) (CLSI. Reference Method for Broth Dilution Antifungal Susceptibility Testing of Yeasts; Approved Standard—Third Edition. CLSI, 940 West Valley Road, Suite 1400, Wayne, Pa. 19087-1898 USA, 2003).

For experiment [5], the system named is C. albicans. As to conditions: cited from earlier work.
The next experiment deals with fungus. The settings on record: read-out: IC50, single-agent antifungal activity; cited from earlier work.

Results on 3 compounds are retold here after patent US9738610B2, “Indazole derivatives and uses thereof” (Whitehead Institute for Biomedical Research, priority 2012, dated 2017).

“Also recorded” adds a separate entry of the source.

By IC50 is commonly meant the concentration that gives 50% inhibition. In turn, `COC(=O)Cn1nc(-c2ccccc2)c2ccccc21` [Compound I-3] gave a half-maximal inhibitory concentration (IC50) in experiment [1] of approximately 600 nM. The “Inhibition of human Complex III in vitro” value on human Complex III is reported as “active”. In addition, the “Inhibitory activity against A. terreus” value with Aspergillus terreus is given as “shows inhibitory activity”. For the same compound, the “Inhibitory activity against S. cerevisiae (respiratory growth)” value in experiment [2] is “completely inhibits respiratory growth; also recorded: shows inhibitory activity”. In addition, the “Inhibitory activity against resistant S. cerevisiae” value in experiment [3] is listed as “showed inhibitory activity”.

`c1ccc(COc2cccc(-c3nn(Cc4nnco4)c4ccccc34)c2)cc1` [Compound I-52]: the “Inhibition of C. albicans in absence and presence of fluconazole (FCZ)” value with C. albicans [4] is “more active in inhibiting C. albicans in presence of fluconazole (FCZ) than in absence thereof”. Besides, in the experiment with Aspergillus terreus, the “Inhibitory activity against A. terreus” value is “shows inhibitory activity”. The “Inhibitory activity against S. cerevisiae (respiratory growth)” value in experiment [2] is on record as “shows inhibitory activity”.

On to Plagiochin E, for which the “Concentration that increased yeast susceptibility to fluconazole” value with C. albicans [5] was 2.4 µM. Besides, the IC50 in the experiment with fungus is 3800 nM.
